Patent US20250195521A1 (Revolution Medicines, Inc., priority 2020, published 2025)
Where “and” joins values, the source holds several entries; their conditions need not be identical. Identical values can stand only once. Like-named read-outs stand apart in the source and are kept apart here.

Key:
[1] = test system: NCI-H358 cells (K-Ras G12C); experiment: CellTiter-Glo cell viability, NCI-H358; format: cell-based, human; conditions: read-out: H358 Cell Viability IC50
Protocol: Note—The following protocol describes a procedure for monitoring cell viability of K-Ras mutant cancer cell lines in response to a compound of the invention. Other RAS isoforms may be employed, though the number of cells to be seeded will vary based on cell line used.
Test compounds (132.5 nl) were directly dispensed into the assay plates containing cells. […] On day 5, assay plates and their contents were equilibrated to room temperature for approximately 30 minutes. […] Luminescence was measured using the PerkinElmer Enspire. Data were normalized by the following: (Sample signal/Avg. DMSO)*100. The data were fit using a four-parameter logistic fit.

[2] = test system: Capan-1 cells (K-Ras G12V); experiment: CellTiter-Glo cell viability, Capan-1; format: cell-based, human; conditions: K-Ras G12V, 5-day treatment, read-out: Capan-1 Cell Viability IC50
Procedure, shortened: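 Viability is read as luminescence after five days of compound exposure, with plates first equilibrated to room temperature for roughly 30 minutes. Each signal is expressed as a percentage of the mean DMSO control, and curves are fitted by four-parameter logistic regression.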

[3] = test system: K-Ras G12C (NCI-H358 cells); experiment: Potency assay: pERK in NCI-H358 cells; format: cell-based, human; conditions: NCI-H358 cells, 4 hours, read-out: pERK EC50 (H358 KRAS G12C)
Procedure, shortened: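 Cells plated the day before were exposed for 4 h at 37° C, 5% CO2 to a 10-point, 3-fold DMSO dilution series (10 mM top stock), in duplicate. Phospho-ERK was read by AlphaLISA SureFire Ultra or by In-Cell Western with DRAQ5 DNA stain, and IC50 came from a 4-parameter sigmoidal fit.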

[4] = test system: NCI-H358 (K-Ras G12C); experiment: CellTiter-Glo cell viability assay, NCI-H358; format: cell-based, human; conditions: 5-day treatment, read-out: H358 Cell Viability assay data (K-Ras G12C, IC50)
Procedure, shortened: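 Viability is measured as ATP-dependent luminescence (CellTiter-Glo) five days into compound treatment. Responses are normalized to vehicle (DMSO) wells and fitted by four-parameter logistic regression.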

[5] = target: KRAS G13D (Homo sapiens (Human), UniProt P01116+P62937, G13D); experiment: Ras-Raf disruption/FRET/MOA assay (BRAF RBD, Cyclophilin A); format: biochemical; conditions: read-out: KRAS G13D FRET data IC50
Sequence of KRAS G13D (P01116 other isoform, or with tags, fused parts or gaps G13D): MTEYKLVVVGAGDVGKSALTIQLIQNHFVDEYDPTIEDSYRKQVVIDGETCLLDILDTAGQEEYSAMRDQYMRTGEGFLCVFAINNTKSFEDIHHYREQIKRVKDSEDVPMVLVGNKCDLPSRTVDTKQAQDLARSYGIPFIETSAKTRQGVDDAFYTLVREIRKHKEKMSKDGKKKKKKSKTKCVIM
Sequence of KRAS G13D (P62937 whole entry): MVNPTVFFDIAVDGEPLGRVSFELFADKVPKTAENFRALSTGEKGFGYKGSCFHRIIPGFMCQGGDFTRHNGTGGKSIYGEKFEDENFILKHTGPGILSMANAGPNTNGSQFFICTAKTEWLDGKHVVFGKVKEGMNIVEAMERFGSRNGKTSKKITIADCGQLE
Procedure, shortened: (§1)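 First, 25 μM Cyclophilin A, 12.5 nM His6-Ras-GMPPNP and 50 nM GST-BRAF RBD are mixed with diluted compound at pH 7.3. Next, 3 h at 25° C. Then 10 nM anti-His Eu-W1024 plus 50 nM anti-GST allophycocyanin for 1.5 h before TR-FRET reading.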

[6] = target: KRAS G12D (Homo sapiens (Human), UniProt P01116+P62937, G12D); experiment: as above; format: biochemical; conditions: read-out: KRAS G12D FRET IC50
Sequence of KRAS G12D (P01116 other isoform, or with tags, fused parts or gaps G12D): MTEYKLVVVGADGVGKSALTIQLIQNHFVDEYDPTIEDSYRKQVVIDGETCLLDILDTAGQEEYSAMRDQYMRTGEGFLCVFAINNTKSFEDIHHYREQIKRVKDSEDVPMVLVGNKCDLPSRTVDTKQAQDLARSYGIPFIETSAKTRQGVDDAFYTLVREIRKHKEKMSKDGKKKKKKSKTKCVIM
Sequence of KRAS G12D (P62937 whole entry): as the sequence (P62937 whole entry) above
Procedure, shortened: as §1

[7] = target: KRAS G12C (Homo sapiens (Human), UniProt P01116+P62937, G12C); experiment: as above; format: biochemical; conditions: read-out: KRAS G12C FRET IC50
Sequence of KRAS G12C (P01116-2 other isoform, or with tags, fused parts or gaps G12C): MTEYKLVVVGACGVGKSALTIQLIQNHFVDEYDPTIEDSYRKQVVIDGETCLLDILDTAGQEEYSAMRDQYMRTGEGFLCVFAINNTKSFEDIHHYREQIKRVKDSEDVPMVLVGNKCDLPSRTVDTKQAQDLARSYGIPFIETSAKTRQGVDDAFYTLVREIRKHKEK
Sequence of KRAS G12C (P62937 whole entry): as the sequence (P62937 whole entry) above
Procedure, shortened: as §1

[8] = target: KRAS WT (Homo sapiens (Human), UniProt P01116+P62937); experiment: as above; format: biochemical; conditions: read-out: KRAS WT FRET data IC50
Sequence of KRAS WT (P01116 other isoform, or with tags, fused parts or gaps): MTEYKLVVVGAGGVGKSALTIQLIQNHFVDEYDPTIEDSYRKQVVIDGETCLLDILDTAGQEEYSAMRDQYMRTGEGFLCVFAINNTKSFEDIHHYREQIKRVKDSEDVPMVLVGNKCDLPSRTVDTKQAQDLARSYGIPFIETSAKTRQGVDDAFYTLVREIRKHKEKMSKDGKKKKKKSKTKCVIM
Sequence of KRAS WT (P62937 whole entry): as the sequence (P62937 whole entry) above
Procedure, shortened: as §1

[9] = target: KRAS G12V (Homo sapiens (Human), UniProt P01116+P62937, G12V); experiment: as above; format: biochemical; conditions: read-out: KRAS G12V FRET IC50
Sequence of KRAS G12V (P01116 other isoform, or with tags, fused parts or gaps G12V): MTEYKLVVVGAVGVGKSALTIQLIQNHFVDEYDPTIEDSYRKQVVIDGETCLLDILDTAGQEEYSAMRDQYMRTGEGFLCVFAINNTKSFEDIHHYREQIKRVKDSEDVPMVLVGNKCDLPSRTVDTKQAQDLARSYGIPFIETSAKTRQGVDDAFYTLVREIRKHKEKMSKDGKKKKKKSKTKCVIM
Sequence of KRAS G12V (P62937 whole entry): as the sequence (P62937 whole entry) above
Procedure, shortened: as §1

[10] = target: KRAS G13C (Homo sapiens (Human), UniProt P01116+P62937, G13C); experiment: as above; format: biochemical; conditions: read-out: KRAS G13C FRET IC50
Sequence of KRAS G13C (P01116 other isoform, or with tags, fused parts or gaps G13C): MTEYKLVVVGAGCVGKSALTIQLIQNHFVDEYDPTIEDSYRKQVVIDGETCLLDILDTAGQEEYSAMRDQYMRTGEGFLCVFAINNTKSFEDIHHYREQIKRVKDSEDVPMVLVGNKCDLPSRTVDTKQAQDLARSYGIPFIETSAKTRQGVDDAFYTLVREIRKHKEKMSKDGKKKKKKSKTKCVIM
Sequence of KRAS G13C (P62937 whole entry): as the sequence (P62937 whole entry) above
Procedure, shortened: as §1

[11] = target: NRAS G12C (Homo sapiens (Human), UniProt P01111+P62937, G12C); experiment: as above; format: biochemical; conditions: read-out: NRAS G12C FRET data IC50
Sequence of NRAS G12C (P01111 whole entry G12C): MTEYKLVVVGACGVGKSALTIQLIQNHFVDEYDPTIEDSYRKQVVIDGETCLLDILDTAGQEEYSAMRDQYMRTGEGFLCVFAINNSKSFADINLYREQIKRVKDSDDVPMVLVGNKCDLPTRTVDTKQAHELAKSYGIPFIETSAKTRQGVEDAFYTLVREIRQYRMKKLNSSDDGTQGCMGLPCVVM
Sequence of NRAS G12C (P62937 whole entry): as the sequence (P62937 whole entry) above
Procedure, shortened: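 Ras-GMPPNP (12.5 nM), BRAF RBD (50 nM) and 25 μM Cyclophilin A were incubated with compound for 3 h at 25° C, then detected 1.5 h with anti-His Eu and anti-GST APC; IC50 values follow from the reduced TR-FRET ratio.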

[12] = target: KRAS G12S (Homo sapiens (Human), UniProt P01116+P62937, G12S); experiment: as above; format: biochemical; conditions: read-out: KRAS G12S FRET IC50
Sequence of KRAS G12S (P01116 other isoform, or with tags, fused parts or gaps G12S): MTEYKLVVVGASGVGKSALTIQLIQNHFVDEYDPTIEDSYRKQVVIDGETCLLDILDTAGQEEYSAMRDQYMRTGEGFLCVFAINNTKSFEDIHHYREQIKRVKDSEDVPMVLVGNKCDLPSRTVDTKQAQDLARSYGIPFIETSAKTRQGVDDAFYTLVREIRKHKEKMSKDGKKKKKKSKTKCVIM
Sequence of KRAS G12S (P62937 whole entry): as the sequence (P62937 whole entry) above
Procedure, shortened: as §1

[13] = Homo sapiens, NCI-H358, 120 h, K-Ras G12C, 5-day treatment

| EC50 ([3]; Homo sapiens) [nM] | IC50 [5] | IC50 [6] [nM] | IC50 [7] | IC50 [8] | IC50 [9] | IC50 [10] | IC50 [11] | IC50 [12] | Structure (SMILES) | IC50 ([2]; Homo sapiens, CAPAN-1, 120 h) [nM] | also measured |
| --- | --- | --- | --- | --- | --- | --- | --- | --- | --- | --- | --- |
| < 5000 | – | – | – | – | – | – | – | – | CCn1c(-c2cccnc2[C@H](C)OC)c2c3cc(ccc31)-c1cc(O)cc(c1)C[C@H](NC(=O)[C@H](C(C)C)N(C)C(=O)[C@H]1C[C@@H]1O)C(=O)N1CCC[C@H](N1)C(=O)OCC(C)(C)C2 (single isomer, unassigned) [Compound A346] | – | IC50 ([1]; K-Ras G12C, 5-day treatment): 100 to 1000 nM; IC50 [2]: 100 to 1000 nM |
| – | 1000 to 10000 nM | 1000 to 10000 | 100 to 1000 nM | 100 to 1000 nM | 100 to 1000 nM | 1000 to 10000 nM | 1000 to 10000 nM | 1000 to 10000 nM | CCn1c(-c2cnccc2COC)c2c3cc(ccc31)-c1cc(O)cc(c1)C[C@H](NC(=O)[C@H](C(C)C)N(C)C(=O)C1(C)COC1)C(=O)N1CCC[C@H](N1)C(=O)OCC(C)(C)C2 [Compound A49] | – | IC50 ([4]; Homo sapiens, NCI-H358, 120 h): > 10000 nM |
| – | – | – | – | – | – | – | – | – | CCn1c(-c2cnccc2COC)c2c3cc(ccc31)-c1cc(O)cc(c1)C[C@H](NC(=O)[C@H](C(C)C)N(C)C(=O)OC1CCOC1)C(=O)N1CCC[C@H](N1)C(=O)OCC(C)(C)C2 (stereo partly drawn) [Compound A50, oxolan-3-yl-N-[(1S)-1-{[(8S,14S)-22-ethyl-4-hydroxy-21-[4-(methoxymethyl)pyridin-3-yl]-18,18-dimethyl-9,15-dioxo-16-oxa-10,22,28-triazapentacyclo [18.5.2.1^2,6.1^10,14.0^23,27]nonacosa-1 (26),2,4,6 (29),20,23 (27),24-heptaen-8-yl]carbamoyl}-2-methylpropyl]-N-methylcarbamate] | – | IC50 ([1]; Homo sapiens, NCI-H358, 120 h): 1000 to 10000 nM |
| < 5000 | 10 to 100 nM and 100 to 1000 nM | 100 to 1000 | 100 to 1000 nM and 10 to 100 nM | 10 to 100 nM and 100 to 1000 nM | 100 to 1000 nM and 1000 to 10000 nM | 100 to 1000 nM and 10 to 100 nM | 10 to 100 nM and 100 to 1000 nM | 100 to 1000 nM and 10 to 100 nM | CCn1c(-c2cnccc2COC)c2c3cc(ccc31)-c1cc(O)cc(c1)C[C@H](NC(=O)[C@H](C(C)C)N(C)C(=O)C1CNC1)C(=O)N1CCC[C@H](N1)C(=O)OCC(C)(C)C2 [Compound A87] | > 10000 | IC50 ([4]; Homo sapiens, NCI-H358, 120 h): 10 to 100 nM |
| – | – | – | – | – | – | – | – | – | CCn1c(-c2cccnc2[C@H](C)OC)c2c3cc(ccc31)-c1csc(n1)C[C@H](NC(=O)[C@H](C(C)C)N(C)C(=O)O[C@H]1CCN(C)C1)C(=O)N1CCC[C@H](N1)C(=O)OCC(C)(C)C2 [Compound A173] | – | IC50 [1, 13]: 100 to 1000 nM |
| – | – | – | – | – | – | – | – | – | CCn1c(-c2cccnc2[C@H](C)OC)c2c3cc(ccc31)-c1cc(O)cc(c1)C[C@H](NC(=O)[C@H](C(C)C)N(C)C(=O)[C@H]1C[C@@H]1C)C(=O)N1CCC[C@H](N1)C(=O)OCC(C)(C)C2 [Compound A287] | 100 to 1000 | IC50 [1, 13]: 100 to 1000 nM |
| < 5000 | 10 to 100 nM | 10 to 100 | 10 to 100 nM | 10 to 100 nM | 10 to 100 nM | 10 to 100 nM | 10 to 100 nM | 10 to 100 nM | CCn1c(-c2cccnc2[C@H](C)OC)c2c3cc(ccc31)-c1cc(O)cc(c1)C[C@H](NC(=O)[C@H](C(C)C)N(C)C(=O)[C@H]1CCN(C(=O)[C@H]3CCCN3C)C1)C(=O)N1CCC[C@H](N1)C(=O)OCC(C)(C)C2 [Compound A371] | 1000 to 10000 | – |

| Structure (SMILES) | EC50 ([3]; Homo sapiens) [nM] | IC50 [5] | IC50 [6] [nM] | IC50 [7] | IC50 [8] | IC50 [9] | IC50 [10] | IC50 [11] | IC50 [12] | IC50 ([2]; Homo sapiens, CAPAN-1, 120 h) [nM] | also measured |
| --- | --- | --- | --- | --- | --- | --- | --- | --- | --- | --- | --- |
| CCn1c(-c2cccnc2COC)c2c3cc(ccc31)-c1cc(O)cc(c1)C[C@H](NC(=O)[C@H](C(C)C)N(C)C(=O)c1ccc(NC(=O)/C=C/CN(C)C)cn1)C(=O)N1CCC[C@H](N1)C(=O)OCC(C)(C)C2 [Compound A67, (2E)-4-(dimethylamino)-N-(6-{[(1S)-1-{[(8S,14S)-22-ethyl-4-hydroxy-21-[2-(methoxymethyl)pyridin-3-yl]-18,18-dimethyl-9,15-dioxo-16-oxa-10,22,28-triazapentacyclo [18.5.2.1^2,6.1^10,14.0^23,27]nonacosa-1 (26),2,4,6 (29),20,23 (27),24-heptaen-8-yl]carbamoyl}-2-methylpropyl](methyl)carbamoyl}pyridin-3-yl) but-2-enamide] | – | – | 100 to 1000 | 10 to 100 nM | – | 100 to 1000 nM | 10 to 100 nM | – | 100 to 1000 nM | – | IC50 [4]: 100 to 1000 nM; IC50 ([1]; K-Ras G12C, 5-day treatment): 1000 to 10000 nM; EC50 [3]: < 5000 nM |
